The values below come from publication PMC6019688 (Redox Biology, 2018).

As usually defined, the Ki is a dissociation constant, usually derived from enzyme kinetics or from competition with a known ligand. High values mean weaker binding, low ones tighter binding.

The assay deals with mitochondrial respiratory chain complex I (Homo sapiens, UniProt O75251+O75306+P03886). As to the kind of experiment: spectrophotometric NADH:decylubiquinone oxidation in DU145 homogenate. In kind it is cell-based.
Chain of mitochondrial respiratory chain complex I (P03886 whole entry): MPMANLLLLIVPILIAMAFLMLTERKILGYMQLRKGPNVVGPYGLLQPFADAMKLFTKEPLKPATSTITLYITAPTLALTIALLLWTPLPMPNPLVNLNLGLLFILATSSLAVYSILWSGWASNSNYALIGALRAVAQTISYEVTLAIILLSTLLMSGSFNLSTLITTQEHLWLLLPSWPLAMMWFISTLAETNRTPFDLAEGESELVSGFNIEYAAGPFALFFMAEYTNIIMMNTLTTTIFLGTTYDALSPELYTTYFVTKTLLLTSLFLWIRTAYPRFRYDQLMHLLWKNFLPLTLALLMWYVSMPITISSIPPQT
Chain of mitochondrial respiratory chain complex I (O75306 34-463): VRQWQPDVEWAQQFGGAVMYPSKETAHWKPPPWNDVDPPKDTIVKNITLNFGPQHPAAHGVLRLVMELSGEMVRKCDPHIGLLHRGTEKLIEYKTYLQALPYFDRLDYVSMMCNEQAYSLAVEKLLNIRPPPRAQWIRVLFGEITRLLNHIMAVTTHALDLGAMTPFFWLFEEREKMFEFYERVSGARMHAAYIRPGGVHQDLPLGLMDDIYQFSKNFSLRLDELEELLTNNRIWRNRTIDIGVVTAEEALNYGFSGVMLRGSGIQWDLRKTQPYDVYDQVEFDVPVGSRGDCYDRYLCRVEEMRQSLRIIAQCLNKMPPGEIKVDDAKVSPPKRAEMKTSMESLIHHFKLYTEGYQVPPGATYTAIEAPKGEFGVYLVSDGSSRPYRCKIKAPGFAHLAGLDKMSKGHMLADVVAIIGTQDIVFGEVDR
Chain of mitochondrial respiratory chain complex I (O75251 39-213): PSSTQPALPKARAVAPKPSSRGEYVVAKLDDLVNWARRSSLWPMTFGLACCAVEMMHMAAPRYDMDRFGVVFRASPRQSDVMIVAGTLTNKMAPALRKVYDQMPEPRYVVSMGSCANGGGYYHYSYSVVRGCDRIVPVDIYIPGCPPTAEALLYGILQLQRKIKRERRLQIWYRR

In turn, `CCCCN1CCCC[C@H]1C(=O)Nc1c(C)cccc1C` [levobupivacaine] showed a Ki of 600 µM.
